Like-named read-outs stand apart in the source and are kept apart here.
B1: PRO 140: humanized IgG4,κ anti-CCR5 monoclonal antibody, humanized version of murine mAb PA14 (antibody, chains of the INN, looked up, V domains shown)
VH: EVQLVESGGGLVKPGGSLRLSCAASGYTFSNYWIGWVRQAPGKGLEWIGDIYPGGNYIRNNEKFKDKTTLSADTSKNTAYLQMNSLKTEDTAVYYCGSSFGSNYVFAWFTYWGQGTLVTVSS
VL: DIVMTQSPLSLPVTPGEPASISCRSSQRLLSSYGHTYLHWYLQKPGQSPQLLIYEVSNRFSGVPDRFSGSGSGTDFTLKISRVEAEDVGVYYCSQSTHVPLTFGQGTKVEIK

Columns and labels:
[1] = test system: reporter viruses pseudotyped with HIV-1JR-FL envelope; assay type: cell-based; design: CI90: unit not given beside the values; settings: for CI50 / CI90: envelope JRFL; for IC90 / IC50: 1st inhibitor alone, HIV-1 envelope JRFL
Text: HIV-1 pseudoparticles (HIV-1pp) are generated in 293T cells by transient coexpression of an HIV-1-based NL4/3luc+env− plasmid and a construct encoding HIV-1JRFL Env. The NL4/3luc+env− plasmid was obtained from the NIH AIDS Research and Reference Reagent Program (Cat. No. 3418), and the HIV-1JRFL Env was inserted into the pcDNA3.1 vector (Invitrogen). Briefly, 293T cells are calcium phosphate transfected with a 1:1 ratio of NL4/3luc+env− reporter vector and Env expression vector in Hepes buffer (Profection Mammalian Transfection Kit, Promega). After 16 h the transfection medium is aspirated and fresh cell culture medium (DMEM with 10% FBS, glutamine and antibiotics) is added and the incubation is continued at 37° C. for an additional 24-32 h. Cell culture supernatants are collected 48 h post-transfection and centrifuged at 1,400 rpm for 10 min to pellet cell debris. The viral supernatant is brought to a final concentration of 5% sucrose and stored aliquoted at −80° C.
U87-CD4-CCR5 cells were obtained from the NIH AIDS Research and Reference Program (Cat. No. 4035). These cells are maintained in culture medium (DMEM with 10% FBS, antibiotics and glutamine) containing 0.3 mg/ml G418 and 0.5 mg/ml puromycin. Cells are grown in T175-cm^2 flasks at 37° C. and diluted 1:5 every 3-4 days. For assay plate preparation, cells are trypsinized and seeded into wells of 96-well tissue-culture treated flat bottom opaque polystyrene plates (Perkin Elmer, Boston, Mass.) at a density of 3×10^3 cells/well. Plates are incubated for no more than 4 h at 37° C. in a humidified 5% CO2 incubator prior to their use in the HIV-1 pp susceptibility assay.
Fifty μl of diluted compound at 4× the desired final concentration are added per well. For compounds solubilized in DMSO, the 4× stock will contain 2% DMSO (such that the final DMSO concentration in the assay is always 0.5% for small molecules). Control wells receiving no compound are included on each plate. In addition, an AZT inhibition control is included in each assay. Compounds are tested individually and at a fixed mass or molar ratio over a broad range of concentrations.
A vial of frozen, aliquoted HIV-1pp is thawed in a 37° C. waterbath and then placed on wet ice. Virus is diluted in cold cell culture medium as necessary to achieve the desired final virus concentration in the HIV-1pp assay (about 10,000 relative light units (rlu) per well). 50 μl of diluted virus are added per well, bringing the final well volume to 200 μl. A no-virus control (minimum or background luminescence) and a no-compound control (maximum luminescence) are included on each plate. The plates are incubated for 72 h at 37° C. in a humidified 5% CO2 incubator followed by processing for luciferase signal (see below).
Assay medium is aspirated and 200 μl of PBS are added to each well. […] Assay plates are then frozen for at least 2 h at −80° C. followed by thawing at room temperature and vigorous mixing with an electronic pipettor. 25 μl from each well are transferred to an opaque 96-well plate (Costar #3922). Four replicates are pooled into the same well on the opaque plate. 100 μl of freshly thawed and reconstituted luciferase substrate (Luciferase Assay System, Promega—Cat. No. E1501) are added to each well of the plate with the electronic pipettor, and luminescence is detected immediately on a Dynex MLX plate reader set to medium gain.
The percent inhibition is derived as follows: [1−(luciferase activity in the presence of drug/luciferase activity in the absence of drug)]×100. IC50 values are determined by fitting the inhibition data with a non-linear, four-parameter, variable slope equation (GraphPad Prism, ver. 4.02; GraphPad Software, San Diego, Calif.). Upper and lower inhibition values are constrained to 100% and 0%, respectively for curve fitting. […]

[2] = test system: reporter viruses pseudotyped with HIV-1SF162 envelope; assay type: cell-based; design: CI90: unit not given beside the values; settings: for CI50 / CI90: envelope SF162; for IC50 / IC90: 1st inhibitor alone, HIV-1 envelope SF162
Text: A self-inactivating (SIN) vector was derived from the pNL4-3ΔEnv-luciferase vector (Dragic et al. 1996) by deleting 507 basepairs in the U3 region of the 3′ long terminal repeat (LTR) so as to remove the TATA box and transcription factor binding sites. The human cytomegalovirus promoter was inserted upstream of the luciferase (luc) gene to enable expression of luciferase following integration.
Reporter viruses pseudotyped with HIV-1JR-FL or HIV-1SF162 envelopes were generated by cotransfection of 293T cells with the SIN vector and the appropriate pcDNA env-expressing vector as previously described (Dragic et al. 1996). […] Cultures were incubated for 72 h at 37° C. in DMEM containing 10% fetal bovine serum, 1 mg/mL puromycin, 0.3 mg/mL geneticin, antibiotics, and 0.5% DMSO. Luciferase activity (relative light units or RLU) was measured using BrightGlo reagent (Promega, Madison, Wis.) according to the manufacturer's instructions. Percent inhibition was calculated as: (1−RLU in the presence of inhibitor/RLU in the absence of inhibitor)×100.
Experimental design and data analysis were based on the combination index (CI) method (Chou et al. 1991; Chou et al. 1984). Compounds were tested individually and in combination at a fixed molar ratio over a range of serial dilutions. […] The mutually exclusive CI formula was used for combinations of CCR5 inhibitors, while the mutually non-exclusive formula was utilized for combinations of inhibitors to distinct targets (Chou et al. 1991). Each test was conducted 4-12 times. Synergy, additivity and antagonism are indicated by CI<1, CI=1 and CI>1, respectively.

CCR5 = molecular target: T1, CCR5 (Homo sapiens, UniProt P51681); assay: Competition binding: inhibition of PRO 140-PE binding to CEM.NKR-CCR5 cells (flow cytometry)
T1 construct: host or cells: CEM.NKR-CCR5 (transduced human T cell leukemia line)
T1 sequence (P51681 whole entry): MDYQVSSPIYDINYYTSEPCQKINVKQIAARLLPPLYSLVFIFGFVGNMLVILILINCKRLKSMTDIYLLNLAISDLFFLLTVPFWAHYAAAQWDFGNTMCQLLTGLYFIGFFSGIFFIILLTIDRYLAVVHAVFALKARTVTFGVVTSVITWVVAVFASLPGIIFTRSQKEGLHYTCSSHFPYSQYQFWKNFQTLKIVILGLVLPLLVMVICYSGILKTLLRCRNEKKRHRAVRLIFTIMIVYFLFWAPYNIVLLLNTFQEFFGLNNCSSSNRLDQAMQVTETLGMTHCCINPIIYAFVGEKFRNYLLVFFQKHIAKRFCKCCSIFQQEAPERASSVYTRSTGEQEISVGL
Description: Inhibition was assessed on the basis of both MFI (A) and percent cells gated (B).
Azide was added to block CCR5 internalization during the assay.

[3] = labelled 1st inhibitor with 2nd inhibitor PRO 140, equimolar (1:10 PRO 140 to zidovudine or nevirapine)
[4] = labelled 1st inhibitor with 2nd inhibitor SCH-D

| Molecule | CI50 [1, 3] | CI90 [1, 3] | CI50 [2, 3] | CI90 [2, 3] | IC90 ([1]; read-out: IC90) | IC50 ([2]; read-out: IC50) | IC90 ([2]; read-out: IC90) | percent of cells gated for positive binding of PRO 140-PE (CCR5; result in words (FIG. 12B)) | IC50 [1] | IC90 [1] | CI90 [1, 4] | IC50 [2] | IC90 [2] | CI90 [2, 4] | IC50 ([1]; read-out: IC50) | EC90 (CCR5; based on percent cells gated, 5 nM PRO 140-PE) |
| --- | --- | --- | --- | --- | --- | --- | --- | --- | --- | --- | --- | --- | --- | --- | --- | --- |
| COc1ccnc2[nH]cc(C(=O)C(=O)N3CCN(C(=O)c4ccccc4)C[C@H]3C)c12 [BMS-378806, (R)-N-(benzoyl)-3-methyl-N′-[(4-methoxy-7-azaindol-3-yl)-oxoacetyl]-piperazine] | 1.2 ± 0.38 | 0.74 ± 0.23 | 1.1 ± 0.28 | 0.82 ± 0.21 | – | – | – | – | – | – | – | – | – | – | – | – |
| COC[C@@H](c1ccc(C(F)(F)F)cc1)N1CCN(C2(C)CCN(C(=O)c3c(C)ncnc3C)CC2)C[C@@H]1C [SCH-D, 1-[(4,6-dimethyl-5-pyrimidinyl)carbonyl]-4-[4-[2-methoxy-1(R)-4-(trifluoromethyl)phenyl]ethyl-3(S)-methyl-1-piperazinyl]-4-methylpiperidine] | – | – | – | – | 44 nM | 0.34 nM | 14 nM | little impact | – | – | – | – | – | – | – | – |
| Cc1nnc(C(C)C)n1C1CC2CCC(C1)N2CC[C@H](NC(=O)C1CCC(F)(F)CC1)c1ccccc1 (some centres unmarked) [UK-427,857] | – | – | – | – | – | – | – | – | 7.4 nM | 46 nM | 1.2 ± 0.15 | 0.87 nM | 13 nM | 0.86 ± 0.28 | – | – |
| B1 | 1.2 ± 0.32 | 0.90 ± 0.15 | 1.0 ± 0.27 | 0.86 ± 0.33 | 28 nM | 1.3 nM | 20 nM | – | – | – | – | – | – | – | 2.2 nM | 17 nM |
